Measured values from the supplement of paper PMC11061612.

Tests used:
SN-38 = compound: CCc1c2c(nc3ccc(O)cc13)-c1cc3c(c(=O)n1C2)COC(=O)[C@]3(O)CC [SN-38]; settings: max 0.3 µM
How it was run: (§1)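 Cancer cell lines in 1536-well plates (7.5 μl DMEM/F12 or RPMI, 10% FBS) were held 24 hours at 37°C and 5% CO2 and then dosed for 72 hours at a final DMSO of typically 0.2%. Viability was taken from CellTiter-Glo 2.0 luminescence, scaled between blank-well and DMSO-well means. Curves were fitted as two-parameter logistic models with a non-linear mixed effects model, from which the single-agent IC50 was taken.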

AZD2811 = compound: CCN(CCO)CCCOc1ccc2c(Nc3cc(CC(=O)Nc4cccc(F)c4)[nH]n3)ncnc2c1 [AZD2811]; settings: max 1 µM
How it was run: as §1

AZD0156 = compound: CN(C)CCCOc1ccc(-c2ccc3ncc4c(c3c2)n(C2CCOCC2)c(=O)n4C)cn1 [AZD0156]; settings: max 3 µM
How it was run: as §1

AZD7648 = compound: Cc1cc2ncnn2cc1Nc1ncc2c(n1)n(C1CCOCC1)c(=O)n2C [AZD7648]; settings: max 10 µM
How it was run: as §1

Gefitinib = compound: COc1cc2ncnc(Nc3ccc(F)c(Cl)c3)c2cc1OCCCN1CCOCC1 [Gefitinib]; settings: max 10 µM
How it was run: as §1

AZD8186 = compound: C[C@@H](Nc1cc(F)cc(F)c1)c1cc(C(=O)N(C)C)cc2c(=O)cc(N3CCOCC3)oc12 [AZD8186]; settings: max 3 µM
How it was run: as §1

Palbociclib = compound: CC(=O)c1c(C)c2cnc(Nc3ccc(N4CCNCC4)cn3)nc2n(C2CCCC2)c1=O [Palbociclib]; settings: max 10 µM
How it was run: as §1

Trametinib = compound: CC(=O)Nc1cccc(-n2c(=O)n(C3CC3)c(=O)c3c(Nc4ccc(I)cc4F)n(C)c(=O)c(C)c32)c1 [Trametinib]; settings: max 1 µM
How it was run: as §1

Crizotinib = compound: C[C@@H](Oc1cc(-c2cnn(C3CCNCC3)c2)cnc1N)c1c(Cl)ccc(F)c1Cl [Crizotinib]; settings: max 10 µM
How it was run: as §1

AZD5991 = compound: Cc1c2c(nn1C)CSCc1cc(n(C)n1)CSc1cc(c3ccccc3c1)OCCCc1c(C(=O)O)n(C)c3c-2c(Cl)ccc13 [AZD5991]; settings: max 1 µM
How it was run: as §1

Savolitinib = compound: C[C@@H](c1ccc2nccn2c1)n1nnc2ncc(-c3cnn(C)c3)nc21 [Savolitinib]; settings: max 1 µM
How it was run: as §1

Olaparib = compound: O=C(c1cc(Cc2n[nH]c(=O)c3ccccc23)ccc1F)N1CCN(C(=O)C2CC2)CC1 [Olaparib]; settings: max 10 µM
How it was run: as §1

AZD1775 = compound: C=CCn1c(=O)c2cnc(Nc3ccc(N4CCN(C)CC4)cc3)nc2n1-c1cccc(C(C)(C)O)n1 [AZD1775]; settings: max 3 µM
How it was run: as §1

AZD5153 = compound: COc1nnc2ccc(N3CCC(c4ccc(OCCN5CCN(C)C(=O)[C@H]5C)cc4)CC3)nn12 [AZD5153]; settings: max 1 µM
How it was run: as §1

AZD4320 = compound: CN(CC[C@H](CSC1=CC=CC=C1)NC2=C(C=C(C=C2)S(=O)(=O)NC(=O)C3=CC=C(C=C3)N4CCC(CC4)[C@H](C5=CC=CC=C5C6=CC=C(C=C6)Cl)O)S(=O)(=O)C(F)(F)F)CCO [AZD4320]; settings: max 1 µM
How it was run: as §1

Venetoclax = compound: CC1(C)CCC(CN2CCN(c3ccc(C(=O)NS(=O)(=O)c4ccc(NCC5CCOCC5)c([N+](=O)[O-])c4)c(Oc4cnc5[nH]ccc5c4)c3)CC2)=C(c2ccc(Cl)cc2)C1 [Venetoclax]; settings: max 1 µM
How it was run: as §1

Lapatinib = compound: CS(=O)(=O)CCNCc1ccc(-c2ccc3ncnc(Nc4ccc(OCc5cccc(F)c5)c(Cl)c4)c3c2)o1 [Lapatinib]; settings: max 10 µM
How it was run: as §1

AZD6738 = compound: C[C@@H]1COCCN1C2=NC(=NC(=C2)C3(CC3)[S@](=N)(=O)C)C4=C5C=CNC5=NC=C4 [AZD6738]; settings: max 10 µM
How it was run: as §1

Doxorubicin = compound: COc1cccc2c1C(=O)c1c(O)c3c(c(O)c1C2=O)C[C@@](O)(C(=O)CO)C[C@@H]3O[C@H]1C[C@H](N)[C@H](O)[C@H](C)O1 [Doxorubicin]; settings: max 1 µM
How it was run: as §1

AZD1390 = compound: CC(C)n1c(=O)n(C)c2cnc3cc(F)c(-c4ccc(OCCCN5CCCCC5)nc4)cc3c21 [AZD1390]; settings: max 0.3 µM
How it was run: as §1

SG3199 = compound: CC1=CN2[C@@H](C1)C=NC3=CC(=C(C=C3C2=O)OC)OCCCCCOC4=C(C=C5C(=C4)N=C[C@@H]6CC(=CN6C5=O)C)OC [SG3199]; settings: max 0.001 µM
How it was run: as §1

Dasatinib = compound: CC1=C(C(=CC=C1)Cl)NC(=O)C2=CN=C(S2)NC3=CC(=NC(=N3)C)N4CCN(CC4)CCO [Dasatinib]; settings: max 2 µM
How it was run: as §1

Taselisib = compound: Cc1nc(-c2cn3c(n2)-c2ccc(-c4cnn(C(C)(C)C(N)=O)c4)cc2OCC3)n(C(C)C)n1 [Taselisib]; settings: max 10 µM
How it was run: as §1

Capivasertib = compound: C1CN(CCC1(C(=O)N[C@@H](CCO)C2=CC=C(C=C2)Cl)N)C3=NC=NC4=C3C=CN4 [Capivasertib]; settings: max 10 µM
How it was run: as §1

Alisertib = compound: COc1cc(Nc2ncc3c(n2)-c2ccc(Cl)cc2C(c2c(F)cccc2OC)=NC3)ccc1C(=O)O [Alisertib]; settings: max 10 µM
How it was run: as §1

Prexasertib = compound: COc1cccc(OCCCN)c1-c1cc(Nc2cnc(C#N)cn2)n[nH]1 [Prexasertib]; settings: max 1 µM
How it was run: as §1

Selumetinib = compound: Cn1cnc2c(F)c(Nc3ccc(Br)cc3Cl)c(C(=O)NOCCO)cc21 [Selumetinib]; settings: max 10 µM
How it was run: as §1

Row | Cell Line | IC50, cell viability 72 h (SN-38) | IC50, cell viability 72 h (AZD2811) | IC50, cell viability 72 h (AZD0156) | IC50, cell viability 72 h (AZD7648) | IC50, cell viability 72 h (Gefitinib) | IC50, cell viability 72 h (AZD8186) | IC50, cell viability 72 h (Palbociclib) | IC50, cell viability 72 h (Trametinib) | IC50, cell viability 72 h (Crizotinib) | IC50, cell viability 72 h (AZD5991) | IC50, cell viability 72 h (Savolitinib) | IC50, cell viability 72 h (Olaparib) | IC50, cell viability 72 h (AZD1775) | IC50, cell viability 72 h (AZD5153) | IC50, cell viability 72 h (AZD4320) | IC50, cell viability 72 h (Venetoclax) | IC50, cell viability 72 h (Lapatinib) | IC50, cell viability 72 h (AZD6738) | IC50, cell viability 72 h (Doxorubicin) | IC50, cell viability 72 h (AZD1390) | IC50, cell viability 72 h (SG3199) | IC50, cell viability 72 h (Dasatinib) | IC50, cell viability 72 h (Taselisib) | IC50, cell viability 72 h (Capivasertib) | IC50, cell viability 72 h (Alisertib) | IC50, cell viability 72 h (Prexasertib) | IC50, cell viability 72 h (Selumetinib)
1 | JHH-1 (Hepatocellular Carcinoma) | > 300 nM | > 1000 nM | > 3000 nM | > 10000 nM | > 10000 nM | > 3000 nM | > 10000 nM | 410 nM | > 10000 nM | > 1000 nM | > 1000 nM | > 10000 nM | 1270 nM | > 1000 nM | > 1000 nM | > 1000 nM | > 10000 nM | > 10000 nM | > 1000 nM | > 300 nM | > 1 nM | > 2000 nM | > 10000 nM | > 10000 nM | > 10000 nM | 259 nM | > 10000 nM
2 | NCI-H196 (Small Cell Lung Carcinoma) | > 300 nM | > 1000 nM | > 3000 nM | > 10000 nM | > 10000 nM | > 3000 nM | > 10000 nM | > 1000 nM | > 10000 nM | > 1000 nM | > 1000 nM | > 10000 nM | 2110 nM | > 1000 nM | > 1000 nM | > 1000 nM | > 10000 nM | > 10000 nM | > 1000 nM | > 300 nM | > 1 nM | > 2000 nM | > 10000 nM | > 10000 nM | > 10000 nM | 170 nM | > 10000 nM
3 | NCI-H1155 (Non-Small Cell Lung Carcinoma) | 4.68 nM | > 1000 nM | > 3000 nM | > 10000 nM | > 10000 nM | > 3000 nM | > 10000 nM | > 1000 nM | > 10000 nM | > 1000 nM | > 1000 nM | > 10000 nM | > 3000 nM | 541 nM | > 1000 nM | > 1000 nM | > 10000 nM | 5970 nM | 617 nM | > 300 nM | > 1 nM | > 2000 nM | > 10000 nM | 8340 nM | 9880 nM | 49.1 nM | > 10000 nM
4 | NCI-H1563 (Lung Adenocarcinoma) | > 300 nM | > 1000 nM | > 3000 nM | > 10000 nM | > 10000 nM | 2270 nM | > 10000 nM | > 1000 nM | > 10000 nM | > 1000 nM | > 1000 nM | > 10000 nM | > 3000 nM | > 1000 nM | > 1000 nM | > 1000 nM | > 10000 nM | > 10000 nM | > 1000 nM | > 300 nM | > 1 nM | 1120 nM | 2480 nM | > 10000 nM | > 10000 nM | > 1000 nM | > 10000 nM
5 | NCI-H1623 (Lung Adenocarcinoma) | 7.47 nM | > 1000 nM | > 3000 nM | > 10000 nM | 714 nM | > 3000 nM | > 10000 nM | 229 nM | > 10000 nM | 163 nM | > 1000 nM | > 10000 nM | > 3000 nM | > 1000 nM | > 1000 nM | > 1000 nM | 902 nM | 8050 nM | > 1000 nM | > 300 nM | > 1 nM | > 2000 nM | 340 nM | > 10000 nM | > 10000 nM | 89.5 nM | > 10000 nM
6 | OCI-AML5 (Acute Myeloid Leukemia) | 9.54 nM | 18.6 nM | > 3000 nM | > 10000 nM | > 10000 nM | > 3000 nM | 6640 nM | 28.9 nM | 2410 nM | 58.8 nM | > 1000 nM | > 10000 nM | 543 nM | 323 nM | 42.7 nM | 50.6 nM | > 10000 nM | 2240 nM | 658 nM | > 300 nM | > 1 nM | > 2000 nM | 2190 nM | > 10000 nM | 1130 nM | 13.4 nM | 2120 nM
7 | OVTOKO (Ovarian Carcinoma) | > 300 nM | > 1000 nM | > 3000 nM | > 10000 nM | > 10000 nM | 2650 nM | > 10000 nM | > 1000 nM | > 10000 nM | > 1000 nM | > 1000 nM | > 10000 nM | 2100 nM | 948 nM | > 1000 nM | > 1000 nM | > 10000 nM | > 10000 nM | > 1000 nM | > 300 nM | > 1 nM | 56.4 nM | 693 nM | 8520 nM | > 10000 nM | 714 nM | > 10000 nM
8 | RERF-LC-KJ (Lung Adenocarcinoma) | 240 nM | > 1000 nM | > 3000 nM | > 10000 nM | > 10000 nM | > 3000 nM | > 10000 nM | > 1000 nM | > 10000 nM | > 1000 nM | > 1000 nM | > 10000 nM | > 3000 nM | 83.7 nM | > 1000 nM | > 1000 nM | > 10000 nM | > 10000 nM | > 1000 nM | > 300 nM | > 1 nM | > 2000 nM | 6500 nM | > 10000 nM | > 10000 nM | > 1000 nM | > 10000 nM
